A short description of data set [1]: Radiation-induced mucositis in mice (inferior lip mucosa model, Parkins score). It is filed as in vivo, C57BL/6 mice. The settings on record: C57BL/6, mouse, in vivo; IP, given before each fraction of radiation, mice; read-out: maximum tolerated dose. The method, then: (§1) The experimental murine model was developed by Parkins et al., Radiother. […] C57BL/6 mice 8-10 weeks old were used and fed with semi-liquid food. Unanesthetized mice were maintained in supine position and irradiated exclusively on the tip of the mouth. […] J. Radiat. Oncol. Biol. Phys., 8, 145-148 (1982). The irradiation was performed with an RT 250 Phillips apparatus, delivering 1.98 Gy/min (200 kV, 20 mA, filter of 0.2 mm Cu). During irradiation, a constant normobaric air renewal was maintained.
(§2) For the systemic applications, amifostine was dissolved in a […] solution 5 minutes before systemic IP injection of 200 to 400 mg/kg, which was administered 30 minutes before irradiation. A placebo solution of […] was used for a control group. For the topical applications, 50 mg of amifostine was dissolved in 1 mL of a solution containing 1% stearate, 5% H2O, and ammonia to adjust the pH of the solution to 8.8. The topical application was administered to the lip mucosa of the mice for a period of 30 minutes before each radiation session, and was maintained throughout the duration of irradiation. A single dose of 16.5 Gy, and a fractionated schedule delivering 24 Gy in 4 fractions over 2 days (with 8 hour intervals between fractions) were administered.
(§3) Four groups of eight mice were scored and weighed each day. Any mice having lost 30% or more of the initial weight was sacrificed. The effect of mucositis and weight loss were compared at the maximum of the acute reactions (day 11) among the different groups receiving or not receiving amifostine treatments, using the Mann and Whitney test.

The test system of data set [2] is inferior lip mucosa of the mice. The description is as above. It is filed as in vivo, C57BL/6 mice. The settings on record: for maximum grade of mucosal reactions: Parkins score. The method, then: as §1, §2, §3

For the molecule `NCCCNCCSP(=O)(O)O` [amifostine, S-2-(3-aminopropylamino)ethyl dihydrogen phosphorothioate], the MTD at 2 days in data set [1] worked out at 400 mg/kg. For the same molecule, the “maximum grade of mucosal reactions” value turned out to be 3.5±0.2 in data set [2] (200 mg/kg IP 30 min before irradiation, 24 Gy in 4 fractions over 2 days, day 11, ± standard error) and 2.5±0.4 in data set [2] (400 mg/kg IP 30 min before irradiation, 24 Gy in 4 fractions over 2 days, day 11, ± standard error). For the same molecule, the “grades of mucosal reactions compared to the control group” value in data set [2] (single dose of 16.5 Gy, IP and topical amifostine groups) is reported as “significantly lower”. Further, in data set [2] (topical 50 mg/mL solution pH 8.8 on lip mucosa 30 min before and during irradiation, 24 Gy in 4 fractions over 2 days, day 11, ± standard error), the “maximum grade of mucositis” value came out at 3.9±0.2.

For the origin of these results see US6753323B2, “Topical administration of amifostine and related compounds” (MedImmune Oncology, Inc., priority 1998, dated 2004).
